Like-named read-outs stand apart in the source and are kept apart here. Numbered stars: 1 amine (or outer) side, 2 acyl side, 3 side chain; on linkers, the order of the positions; unused ones are H or OH. Bridge positions count the residues as written; N and C are the ends. Square brackets hold non-standard residues; d marks the D form. Side chains are listed from the residue outwards. Peptide text beside a SMILES is read from it. * marks the point of attachment. TtdsdLys(DOTA)NH2 = NC(=O)[C@@H](CCCCNC(=O)CN1CCN(CC(=O)O)CCN(CC(=O)O)CCN(CC(=O)O)CC1)NC(=O)CCC(=O)NCCCOCCOCCOCCCN*; DOTA = O=C(O)CN1CCN(CC(=O)O)CCN(CC(=O)*)CCN(CC(=O)O)CC1; Phe(4-Cl) = N[C@@H](Cc1ccc(Cl)cc1)C(=O)O; Propanoyl(3-SO2NH2) = NS(=O)(=O)CCC(=O)*; Pro(4,4-F2) = O=C(O)[C@@H]1CC(F)(F)CN1; Ethylenediamine = C(CN[*:2])N[*:1]; hArg = N=C(N)NCCCC[C@H](N)C(=O)O; X1 = O=C(CC1CCN([*:1])CC1)[*:2]; Tle = CC(C)(C)[C@H](N)C(=O)O; 4Amb = NCc1ccc(C(=O)O)cc1; 4Abz = Nc1ccc(C(=O)O)cc1; NHCH2tBu = CC(C)(C)CN*; Aib = CC(C)(N)C(=O)O; βAla = NCCC(=O)O
Key:
[1] = target: T1, PSMA-expressing C4-2 cells (Homo sapiens, UniProt Q04609); test: FACS binding assay (competition with 50 nM PSM-0183)
T1 construct: PSMA-expressing C4-2 cells (ATCC, Cat. No. CRL-3314) were cultured in RPMI-1640; host or cells: C4-2 cells
T1 sequence (Q04609 whole entry): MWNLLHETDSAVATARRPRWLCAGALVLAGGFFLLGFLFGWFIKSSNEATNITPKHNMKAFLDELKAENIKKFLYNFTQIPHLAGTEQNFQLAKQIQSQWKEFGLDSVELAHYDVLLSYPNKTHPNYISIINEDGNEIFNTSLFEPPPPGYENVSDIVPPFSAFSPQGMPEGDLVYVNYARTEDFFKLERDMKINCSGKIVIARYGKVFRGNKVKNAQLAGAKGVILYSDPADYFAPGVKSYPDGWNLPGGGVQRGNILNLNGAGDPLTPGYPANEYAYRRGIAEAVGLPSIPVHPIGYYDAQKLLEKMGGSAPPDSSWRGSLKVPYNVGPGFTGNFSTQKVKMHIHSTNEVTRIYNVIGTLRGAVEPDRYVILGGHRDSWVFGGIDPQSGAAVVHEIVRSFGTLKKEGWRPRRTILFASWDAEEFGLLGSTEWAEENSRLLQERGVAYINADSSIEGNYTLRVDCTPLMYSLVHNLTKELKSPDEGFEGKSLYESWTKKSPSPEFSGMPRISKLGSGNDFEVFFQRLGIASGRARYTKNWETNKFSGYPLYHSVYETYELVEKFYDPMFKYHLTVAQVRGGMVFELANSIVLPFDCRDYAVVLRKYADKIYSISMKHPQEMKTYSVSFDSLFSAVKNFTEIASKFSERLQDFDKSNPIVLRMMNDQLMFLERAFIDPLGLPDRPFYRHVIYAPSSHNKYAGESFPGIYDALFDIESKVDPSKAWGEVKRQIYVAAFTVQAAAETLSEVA
How it was run: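 C4-2 cells were incubated 1 h at 4 °C with 50 nM AF488-labelled peptide PSM-0183 plus increasing test compound concentrations, then washed twice in ice-cold buffer. Median fluorescence in the AF488 channel was read by flow cytometry. IC50/pIC50 was derived by 4PL fitting of MFI versus concentration.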

[2] = target: T2, Fc-fusion protein of human PSMA (hPSMA-Fc) (Homo sapiens, UniProt Q04609); test: Surface plasmon resonance assay (Biacore T200, single cycle kinetic); format: binding
T2 construct: purchased Acro Biosystems PSA-H5264
T2 sequence (Q04609 44-750 limits assumed): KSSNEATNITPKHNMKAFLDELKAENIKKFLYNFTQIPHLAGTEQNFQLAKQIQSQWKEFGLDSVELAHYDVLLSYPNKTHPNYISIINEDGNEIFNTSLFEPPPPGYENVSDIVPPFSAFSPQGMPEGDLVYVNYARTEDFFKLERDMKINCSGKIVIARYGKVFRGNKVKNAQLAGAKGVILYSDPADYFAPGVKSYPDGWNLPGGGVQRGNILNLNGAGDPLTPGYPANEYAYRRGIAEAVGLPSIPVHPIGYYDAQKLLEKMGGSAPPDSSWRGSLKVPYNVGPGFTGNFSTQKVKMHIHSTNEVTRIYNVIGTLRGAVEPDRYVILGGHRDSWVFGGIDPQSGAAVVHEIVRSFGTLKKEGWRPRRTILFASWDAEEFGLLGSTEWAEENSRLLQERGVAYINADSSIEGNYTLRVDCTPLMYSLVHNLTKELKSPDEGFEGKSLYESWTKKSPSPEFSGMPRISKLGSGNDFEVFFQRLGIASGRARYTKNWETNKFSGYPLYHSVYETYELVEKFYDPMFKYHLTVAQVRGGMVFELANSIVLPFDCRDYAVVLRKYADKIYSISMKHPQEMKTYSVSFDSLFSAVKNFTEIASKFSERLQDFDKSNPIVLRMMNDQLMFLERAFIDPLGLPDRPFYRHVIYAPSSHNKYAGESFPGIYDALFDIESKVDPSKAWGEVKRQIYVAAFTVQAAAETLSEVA
How it was run: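 hPSMA-Fc was captured (~1000 RU) on an Fc-binding-peptide CM5 chip, and compounds were run in single cycle kinetic mode at 25° C in HBST with 0.1% DMSO. Double-blank-corrected sensorgrams were fitted to a 1:1 Langmuir model to give KD, reported as pKD.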

[3] = FACS binding, C4-2 cells, competition with 50 nM PSM-0183, category, read-out: pIC50 [C4-2] CAT (converted)
[4] = SPR, hPSMA-Fc, single cycle kinetic, 25° C., category, read-out: pKD CAT (converted)

Compound	IC50 [1, 3]	Kd [2, 4]	IC50 [1]	Kd [2]
CC(=O)N[C@H](C(=O)NC(C)(C)C(=O)N[C@@H](Cc1ccccc1)C(=O)N[C@H]1CSSC[C@@H](C(=O)NCC(C)(C)C)NC(=O)[C@H](CC(N)=O)NC(=O)C(C)(C)NC(=O)[C@H](CCCNC(=N)N)NC(=O)[C@H](CCCCN)NC1=O)[C@@H](C)O [PSM-0208, Ac-Thr-Aib-Phe-[Cys-Lys-Arg-Aib-Asn-Cys]-NHnPen] (Ac-T[Aib]FCKR[Aib]NC-NHCH2tBu; disulfide 4-9)	200 to 1260 nM	126 to 501 nM	–	–
C[C@@H](O)[C@H](NC(=O)[C@@H](NC(=O)[C@@H]1CSSC[C@H](NC(=O)[C@H](Cc2ccccc2)NC(=O)C(C)(C)NC(=O)[C@@H](NC(=O)CCNC(=O)CN2CCN(CC(=O)O)CCN(CC(=O)O)CCN(CC(=O)O)CC2)[C@@H](C)O)C(=O)N[C@@H](CCCCN)C(=O)N[C@@H](CCCNC(=N)N)C(=O)NC(C)(C)C(=O)N[C@@H](CC(N)=O)C(=O)N1)C(C)(C)C)C(N)=O [PSM-0209, DOTA-Bal-Thr-Aib-Phe-[Cys-Lys-Arg-Aib-Asn-Cys]-Tle-Thr-NH2] ({DOTA-βAla}-T[Aib]FCKR[Aib]NC[Tle]T-NH2; disulfide 4-9)	< 200 nM	< 12.6 nM	–	–
CC(=O)N[C@H](C(=O)NC(C)(C)C(=O)N[C@@H](Cc1ccccc1)C(=O)N[C@H]1CSSC[C@@H](C(=O)N[C@H](C(=O)N[C@H](C(=O)N[C@@H](CC(=O)O)C(N)=O)[C@@H](C)O)C(C)(C)C)NC(=O)[C@H](CC(N)=O)NC(=O)C(C)(C)NC(=O)[C@H](CCCNC(=N)N)NC(=O)[C@H](CCC(N)=O)NC1=O)[C@@H](C)O [PSM-0210, Ac-Thr-Aib-Phe-[Cys-Gln-Arg-Aib-Asn-Cys]-Tle-Thr-Asp-NH2] (Ac-T[Aib]FCQR[Aib]NC[Tle]TD-NH2; disulfide 4-9)	< 200 nM	12.6 to 126 nM	–	–
CC(=O)N[C@H](C(=O)NC(C)(C)C(=O)N[C@@H](Cc1ccccc1)C(=O)N[C@H]1CSSC[C@@H](C(=O)N[C@H](C(=O)N[C@H](C(N)=O)[C@@H](C)O)C(C)(C)C)NC(=O)[C@H](CC(N)=O)NC(=O)[C@H](CCCCNC(=O)c2ccc(NC(=O)CN3CCN(CC(=O)O)CCN(CC(=O)O)CCN(CC(=O)O)CC3)cc2)NC(=O)[C@H](CCCNC(=N)N)NC(=O)[C@H](CCCCN)NC1=O)[C@@H](C)O [PSM-0211, Ac-Thr-Aib-Phe-[Cys-Lys-Arg-Lys(DOTA-Pab)-Asn-Cys]-Tle-Thr-NH2] (Ac-T[Aib]FCKRK([4Abz-DOTA])NC[Tle]T-NH2; disulfide 4-9)	< 200 nM	< 12.6 nM	–	–
CC(=O)N[C@H](C(=O)NC(C)(C)C(=O)N[C@@H](Cc1ccccc1)C(=O)N[C@H]1CSSC[C@@H](C(=O)N[C@H](C(=O)N[C@H](C(=O)N[C@@H](CC(=O)O)C(=O)NCCCOCCOCCOCCCNC(=O)CCC(=O)N[C@H](CCCCNC(=O)CN2CCN(CC(=O)O)CCN(CC(=O)O)CCN(CC(=O)O)CC2)C(N)=O)[C@@H](C)O)C(C)(C)C)NC(=O)[C@H](CC(N)=O)NC(=O)C(C)(C)NC(=O)[C@H](CCCNC(=N)N)NC(=O)[C@H](CCCCN)NC1=O)[C@@H](C)O [PSM-0212, Ac-Thr-Aib-Phe-[Cys-Lys-Arg-Aib-Asn-Cys]-Tle-Thr-Asp-Ttds-lys(DOTA)-NH2] (Ac-T[Aib]FCKR[Aib]NC[Tle]TD-{TtdsdLys(DOTA)NH2}; disulfide 4-9)	< 200 nM	< 12.6 nM	–	–
C[C@@H](O)[C@H](NC(=O)[C@@H](NC(=O)[C@@H]1CSSC[C@H](NC(=O)[C@H](Cc2ccc(Cl)cc2)NC(=O)C(C)(C)NC(=O)CCS(N)(=O)=O)C(=O)N[C@@H](CCCCN)C(=O)N[C@@H](CCCNC(=N)N)C(=O)NC(C)(C)C(=O)N[C@@H](CC(N)=O)C(=O)N1)C(C)(C)C)C(=O)N1CCC(CC(=O)N[C@H](CCCCNC(=O)CN2CCN(CC(=O)O)CCN(CC(=O)O)CCN(CC(=O)O)CC2)C(N)=O)CC1 [PSM-0215, SaPr-Aib-Pcf-[Cys-Lys-Arg-Aib-Asn-Cys]-Tle-Thr-Cmp-lys(DOTA)-NH2] ({Propanoyl(3-SO2NH2)}-[Aib][Phe(4-Cl)]CKR[Aib]NC[Tle]T[X1][dK](DOTA)-NH2; disulfide 3-8)	< 200 nM	12.6 to 126 nM	–	–
C[C@@H](O)[C@H](NC(=O)CN1CCN(CC(=O)O)CCN(CC(=O)O)CCN(CC(=O)O)CC1)C(=O)NC(C)(C)C(=O)N[C@@H](Cc1ccc(Cl)cc1)C(=O)N[C@H]1CSSC[C@@H](C(=O)N[C@H](C(=O)NCCC(N)=O)C(C)(C)C)NC(=O)[C@H](CC(N)=O)NC(=O)C(C)(C)NC(=O)[C@H](CCCNC(=N)N)NC(=O)[C@H](CCCCN)NC1=O [PSM-0216, DOTA-Thr-Aib-Pcf-[Cys-Lys-Arg-Aib-Asn-Cys]-Tle-Bal-NH2] ({DOTA}-T[Aib][Phe(4-Cl)]CKR[Aib]NC[Tle][βAla]-NH2; disulfide 4-9)	< 200 nM	< 12.6 nM	–	–
CC(=O)N[C@H](C(=O)NC(C)(C)C(=O)N[C@@H](Cc1ccccc1)C(=O)N[C@H]1CSSC[C@@H](C(=O)N[C@H](C(=O)N[C@H](C(=O)N[C@@H](CC(=O)O)C(N)=O)[C@@H](C)O)C(C)(C)C)NC(=O)[C@H](CC(N)=O)NC(=O)[C@@H]2CC(F)(F)CN2C(=O)[C@H](CCCNC(=N)N)NC(=O)[C@H](CCCCN)NC1=O)[C@@H](C)O [PSM-0217, Ac-Thr-Aib-Phe-[Cys-Lys-Arg-Dfp-Asn-Cys]-Tle-Thr-Asp-NH2] (Ac-T[Aib]FCKR[Pro(4,4-F2)]NC[Tle]TD-NH2; disulfide 4-9)	–	–	< 200 nM	12.6 to 126 nM
CC(C)C[C@H](NC(=O)CC1CCN(C(=O)CN2CCN(CC(=O)O)CCN(CC(=O)O)CCN(CC(=O)O)CC2)CC1)C(=O)NC(C)(C)C(=O)N[C@@H](Cc1ccccc1)C(=O)N[C@H]1CSSC[C@@H](C(=O)N[C@H](C(=O)N[C@H](C(N)=O)[C@@H](C)O)C(C)(C)C)NC(=O)[C@H](CC(N)=O)NC(=O)C(C)(C)NC(=O)[C@H](CCCNC(=N)N)NC(=O)[C@H](CCCCN)NC1=O [PSM-0220, DOTA-Cmp-Leu-Aib-Phe-[Cys-Lys-Arg-Aib-Asn-Cys]-Tle-Thr-NH2] ({DOTA}-[X1]L[Aib]FCKR[Aib]NC[Tle]T-NH2; disulfide 5-10)	< 200 nM	12.6 to 126 nM	–	–
CC(C)(NC(=O)c1ccc(CNC(=O)CN2CCN(CC(=O)O)CCN(CC(=O)O)CCN(CC(=O)O)CC2)cc1)C(=O)N[C@@H](Cc1ccccc1)C(=O)N[C@H]1CSSC[C@@H](C(=O)N[C@H](C(=O)NCCN)C(C)(C)C)NC(=O)[C@H](CC(N)=O)NC(=O)C(C)(C)NC(=O)[C@H](CCCNC(=N)N)NC(=O)[C@H](CCCCN)NC1=O [PSM-0221, DOTA-Pamb-Aib-Phe-[Cys-Lys-Arg-Aib-Asn-Cys]-Tle-en] ({DOTA-4Amb}-[Aib]FCKR[Aib]NC[Tle]-Ethylenediamine; disulfide 3-8)	< 200 nM	< 12.6 nM	–	–
C[C@@H](O)[C@H](NC(=O)CN1CCN(CC(=O)O)CCN(CC(=O)O)CCN(CC(=O)O)CC1)C(=O)NC(C)(C)C(=O)N[C@@H](Cc1ccc(Cl)cc1)C(=O)N[C@H]1CSSC[C@@H](C(=O)N[C@H](C(=O)NCCN)C(C)(C)C)NC(=O)[C@H](CC(N)=O)NC(=O)C(C)(C)NC(=O)[C@H](CCCNC(=N)N)NC(=O)[C@H](CCCCN)NC1=O [PSM-0222, DOTA-Thr-Aib-Pcf-[Cys-Lys-Arg-Aib-Asn-Cys]-Tle-en] ({DOTA}-T[Aib][Phe(4-Cl)]CKR[Aib]NC[Tle]-Ethylenediamine; disulfide 4-9)	< 200 nM	< 12.6 nM	–	–
CC(=O)NC(=N)NCCC[C@@H]1NC(=O)[C@H](CCCCN)NC(=O)[C@@H](NC(=O)[C@H](Cc2ccc(Cl)cc2)NC(=O)C(C)(C)NC(=O)CC2CCN(C(=O)CN3CCN(CC(=O)O)CCN(CC(=O)O)CCN(CC(=O)O)CC3)CC2)CSSC[C@@H](C(=O)N[C@H](C(=O)N[C@H](C(N)=O)[C@@H](C)O)C(C)(C)C)NC(=O)[C@H](CC(N)=O)NC(=O)C(C)(C)NC1=O [PSM-0223, DOTA-Cmp-Aib-Pcf-[Cys-Lys-Arg(Ac)-Aib-Asn-Cys]-Tle-Thr-NH2] ({DOTA}-[X1][Aib][Phe(4-Cl)]CKR(Ac)[Aib]NC[Tle]T-NH2; disulfide 4-9)	200 to 1260 nM	12.6 to 126 nM	–	–
C[C@@H](O)[C@H](NC(=O)[C@@H](NC(=O)[C@@H]1CSSC[C@H](NC(=O)[C@H](Cc2ccccc2)NC(=O)C(C)(C)NC(=O)CCS(N)(=O)=O)C(=O)N[C@@H](CCCCN)C(=O)N[C@@H](CCCNC(=N)N)C(=O)NC(C)(C)C(=O)N[C@@H](CC(N)=O)C(=O)N1)C(C)(C)C)C(N)=O [PSM-0224, SaPr-Aib-Phe-[Cys-Lys-Arg-Aib-Asn-Cys]-Tle-Thr-NH2] ({Propanoyl(3-SO2NH2)}-[Aib]FCKR[Aib]NC[Tle]T-NH2; disulfide 3-8)	< 200 nM	< 12.6 nM	–	–
C[C@@H](O)[C@H](NC(=O)[C@@H](NC(=O)[C@@H]1CSSC[C@H](NC(=O)[C@H](Cc2ccc(Cl)cc2)NC(=O)C(C)(C)NC(=O)[C@@H](NC(=O)CC2CCN(C(=O)CN3CCN(CC(=O)O)CCN(CC(=O)O)CCN(CC(=O)O)CC3)CC2)[C@@H](C)O)C(=O)N[C@@H](CCCCNC(=N)N)C(=O)N[C@@H](CCCNC(=N)N)C(=O)NC(C)(C)C(=O)N[C@@H](CC(N)=O)C(=O)N1)C(C)(C)C)C(N)=O [PSM-0225, DOTA-Cmp-Thr-Aib-Pcf-[Cys-Har-Arg-Aib-Asn-Cys]-Tle-Thr-NH2] ({DOTA}-[X1]T[Aib][Phe(4-Cl)]C[hArg]R[Aib]NC[Tle]T-NH2; disulfide 5-10)	< 200 nM	< 12.6 nM	–	–

— patent publication US20260083865A1, “PROSTATE SPECIFIC MEMBRANE ANTIGEN (PSMA) LIGANDS AND USE THEREOF” (priority 2022, published 2026)
